Reference: patent publication EP2844225B1, “AVERMECTIN POUR-ON FORMULATION WITH REDUCED WITHDRAWAL TIME” (Norbrook Laboratories Limited, priority 2012, dated 2013)
Where “and” joins values, the source holds several entries; their conditions need not be identical. Equal entries are not always repeated.

Assay: Plasma levels of eprinomectin in cattle after topical pour-on administration (HPLC with fluorescence detection)
Settings: for Plasma concentration of eprinomectin: 0.5 mg/kg bodyweight, individual animals
Method: Twenty beef cattle of mixed gender and aged approximately between 10-20 months at the time of selection were used to determine the levels of eprinomectin in plasma following topical administration of the composition set forth in Table 1 below at a dose rate of 0.5mg/kg of eprinomectin.
The composition was administered along the midline of the back in a narrow strip between the withers and the tailhead using 60 ml syringes graduated to 1 ml. […] Blood samples were collected from each animal by venipuncture from the jugular vein using suitably labelled 9ml heparinised vacutainers. Following collection, samples were placed on ice protected from light under black cover prior to centrifugation. After centrifugation at 4500 revolutions per minute (RPM) for 5 minutes, the plasma was subsampled into 3 amber cryovials (-1ml plasma/cryovial). Plasma samples were stored at <-20°C until assayed. All samples were assayed for the determination of eprinomectin content, measured as eprinomectin B 1 a (hereafter referred to as eprinomectin) by HPLC.

[1] = bovine, in vivo, topical or ocular, 0.5 mg/kg

AUC [1]: 7840 ± 2700 ng·h/mL
Cmax [1]: 45.5 ± 18.4 ng/mL
Tmax [1]: 96 h
concentration at 24 h (bovine, in vivo, topical or ocular, 0.5 mg/kg, mean plasma concentrations ± SD, cattle, topical, 24 hours, mean of all animals): 14.3 ± 5.09 ng/mL
concentration at 240 h (bovine, in vivo, topical or ocular, 0.5 mg/kg, mean plasma concentrations, cattle, topical, 240 hours post administration, mean ± SD): 15 ± 6.69 ng/mL
concentration at 408 h (bovine, in vivo, topical or ocular, 0.5 mg/kg, mean plasma concentrations, cattle, topical, 408 hours, mean ± SD): 2.9 ± 1.15 ng/mL
Plasma concentration of eprinomectin (cattle, topical, time point 0 hrs (pre-treatment)): <1.00 ng/mL
SMILES: CC[C@H](C)[C@H]1O[C@]2(C=C[C@@H]1C)C[C@@H]1C[C@@H](C/C=C(\C)[C@@H](O[C@H]3C[C@H](OC)[C@@H](O[C@H]4C[C@H](OC)[C@H](NC(C)=O)[C@H](C)O4)[C@H](C)O3)[C@@H](C)/C=C/C=C3\CO[C@@H]4[C@H](O)C(C)=C[C@@H](C(=O)O1)[C@]34O)O2 [eprinomectin]
Plasma concentration of eprinomectin (cattle, topical, time point 24 hrs, 0.5 mg/kg, 1440 min): 17.6 ng/mL and 16.9 ng/mL and 20.2 ng/mL and 10.2 ng/mL and 14.6 ng/mL and 6.61 ng/mL and 5.98 ng/mL
Plasma concentration of eprinomectin (cattle, topical, time point 48 hrs, 0.5 mg/kg, 2880 min): 24.7 ng/mL and 36.7 ng/mL and 27.7 ng/mL and 23.5 ng/mL and 26.7 ng/mL and 12.7 ng/mL and 8.29 ng/mL
Plasma concentration of eprinomectin (cattle, topical, time point 72 hrs, 0.5 mg/kg, 4320 min): 30.3 ng/mL and 49.8 ng/mL and 30.1 ng/mL and 39.1 ng/mL and 36.9 ng/mL and 17.4 ng/mL and 13.5 ng/mL
Plasma concentration of eprinomectin (cattle, topical, time point 96 hrs, 0.5 mg/kg, 5760 min): 32.2 ng/mL and 56.9 ng/mL and 36.1 ng/mL and 38.5 ng/mL and 45.3 ng/mL and 19.9 ng/mL
Plasma concentration of eprinomectin (cattle, topical, time point 120 hrs, 0.5 mg/kg, 7200 min): 24.8 ng/mL and 76.5 ng/mL and 27.0 ng/mL and 33.8 ng/mL and 44.7 ng/mL and 25.2 ng/mL
Plasma concentration of eprinomectin (cattle, topical, time point 144 hrs, 0.5 mg/kg, 8640 min): 20.5 ng/mL and 71.7 ng/mL and 24.5 ng/mL and 40.6 ng/mL and 44.7 ng/mL and 28.3 ng/mL
Plasma concentration of eprinomectin (cattle, topical, time point 192 hrs, 0.5 mg/kg, 11520 min): 10.8 ng/mL and 44.1 ng/mL and 15.8 ng/mL and 31.1 ng/mL and 38.1 ng/mL and 21.6 ng/mL
Plasma concentration of eprinomectin (cattle, topical, time point 216 hrs, 0.5 mg/kg, 12960 min): 9.41 ng/mL and 31.1 ng/mL and 13.4 ng/mL and 31.7 ng/mL and 31.2 ng/mL and 16.8 ng/mL and 14.4 ng/mL
Plasma concentration of eprinomectin (cattle, topical, time point 240 hrs, 0.5 mg/kg, 14400 min): 7.12 ng/mL and 21.7 ng/mL and 10.3 ng/mL and 29.2 ng/mL and 24.3 ng/mL and 13.3 ng/mL and 11.2 ng/mL
Plasma concentration of eprinomectin (cattle, topical, time point 312 hrs, 0.5 mg/kg, 18720 min): 4.14 ng/mL and 10.7 ng/mL and 4.53 ng/mL and 14.5 ng/mL and 10.3 ng/mL and 8.49 ng/mL and 3.76 ng/mL
Plasma concentration of eprinomectin (cattle, topical, time point 336 hrs, 0.5 mg/kg, 20160 min): 2.67 ng/mL and 6.98 ng/mL and 3.27 ng/mL and 10.8 ng/mL and 8.74 ng/mL and 7.94 ng/mL and 3.94 ng/mL
Plasma concentration of eprinomectin (cattle, topical, time point 360 hrs, 0.5 mg/kg, 21600 min): 1.90 ng/mL and 5.46 ng/mL and 2.21 ng/mL and 8.23 ng/mL and 7.19 ng/mL and 5.54 ng/mL and 3.37 ng/mL
Plasma concentration of eprinomectin (cattle, topical, time point 408 hrs, 0.5 mg/kg, 24480 min): 1.45 ng/mL and 2.79 ng/mL and 1.28 ng/mL and 4.89 ng/mL and 4.57 ng/mL and 4.06 ng/mL and 2.13 ng/mL
